Test results from ChEMBL document CHEMBL2331527, “New imidazo[1,2-a]pyridines carrying active pharmacophores: synthesis and anticonvulsant studies” (Bioorg Med Chem Lett, 2013).

Columns and labels:
[1] = system: Mus musculus; test: Anticonvulsant activity against maximal electroshock-induced seizures in NMRI mouse assessed as latency period for the onset of clonus at 10 mg/kg, ip measured after 0.5 hrs by maximal electroshock test (reference value: 2.18 +/-0.47 secs); assay type: functional; conditions: route intraperitoneal
[2] = system: Mus musculus; test: Anticonvulsant activity against maximal electroshock-induced seizures in NMRI mouse assessed as duration of tonic hindlimb extension at 10 mg/kg, ip measured after 0.5 hrs by maximal electroshock test (reference value: 15.35 +/-0.60%); assay type: functional; conditions: route intraperitoneal
[3] = system: Mus musculus; test: Anticonvulsant activity against subcutaneous pentylenetetrazole-induced seizures in mouse assessed as onset time for tonic seizures at 10 mg/kg, ip measured after 0.5 hrs by pentylene tetrazole test (reference value: 385.5 +/-10.90 secs); assay type: functional; conditions: route intraperitoneal
[4] = system: Mus musculus; test: Anticonvulsant activity against subcutaneous pentylenetetrazole-induced seizures in mouse assessed as onset time for clonic seizures at 10 mg/kg, ip measured after 0.5 hrs by pentylene tetrazole test (reference value: 59.2 +/-1.11 secs); assay type: functional
[5] = system: Mus musculus; test: Neurotoxicity in ip dosed mouse assessed as minimum effective dose required to induce motor impairment measured after 4 hrs by Rotarod test; assay type: toxicity, organism-based; conditions: in vivo
[6] = system: Mus musculus; test: Neurotoxicity in ip dosed mouse assessed as minimum effective dose required to induce motor impairment measured after 0.5 hrs by Rotarod test; assay type: toxicity, organism-based; conditions: in vivo

SMILES | Time [1] [s] | Time [2] [s] | Time [3] [s] | Time [4] [s] | MED [5] | MED [6]
Cc1ccc(C2=NNC(c3c(-c4ccccc4)nc4c(C)cccn34)C2)cc1 (centres undefined) | 9.28 | 7.22 | 532.5 | 126.7 | – | –
COc1nc(-c2ccc(F)cc2)cc(-c2c(-c3ccccc3)nc3c(C)cccn23)c1C#N | 10.77 | 6.96 | 456.7 | 90.87 | Non-toxic | Non-toxic
Cc1cccn2c(C3CC(c4ccc(Cl)cc4)=NN3)c(-c3ccc(F)cc3)nc12 (centres undefined) | 9.45 | 7.21 | 542.2 | 158.7 | Non-toxic | Non-toxic
Cc1cccn2c(C3CC(c4ccccc4)=NN3)c(-c3ccc(F)cc3)nc12 (centres undefined) | 10.97 | 6.54 | 528.2 | 149.3 | Non-toxic | Non-toxic
Cc1cccn2c(-c3cc(-c4cccs4)nc(N)n3)c(-c3ccccc3)nc12 | 8.86 | 8.71 | 426.8 | 79.5 | Non-toxic | Non-toxic
Cc1cccn2c(-c3cc(-c4ccc([N+](=O)[O-])cc4)[nH]c(=O)c3C#N)c(-c3ccc(F)cc3)nc12 | 10.88 | 6.61 | 641.5 | 171.8 | 100 mg/kg | Non-toxic
Cc1cccn2c(-c3cc(-c4ccc(Cl)cc4)nc(N)n3)c(-c3ccc(F)cc3)nc12 | 7.95 | 9.88 | 480.2 | 109.7 | – | –
Cc1ccc(-c2cc(-c3c(-c4ccc(F)cc4)nc4c(C)cccn34)nc(N)n2)cc1 | 8.16 | 8.15 | 593.2 | 171.4 | Non-toxic | Non-toxic
CN1C(=O)CN=C(c2ccccc2)c2cc(Cl)ccc21 [DIAZEPAM] | 13.17 | – | – | – | Non-toxic | Non-toxic
COc1nc(-c2ccc([N+](=O)[O-])cc2)cc(-c2c(-c3ccccc3)nc3c(C)cccn23)c1C#N | 8.72 | 8.52 | 426.8 | 79.32 | Non-toxic | Non-toxic
Cc1cccn2c(C3C=C(c4ccc(F)cc4)NC(=S)N3)c(-c3ccccc3)nc12 (centres undefined) | 10.91 | 6.87 | 454.7 | 90.83 | Non-toxic | Non-toxic
COc1nc(-c2ccc(C)cc2)cc(-c2c(-c3ccc(F)cc3)nc3c(C)cccn23)c1C#N | 7.94 | 9.84 | 611.5 | 335.3 | Non-toxic | Non-toxic
Cc1cccn2c(-c3cc(-c4ccc([N+](=O)[O-])cc4)nc(N)n3)c(-c3ccc(F)cc3)nc12 | 8.8 | 8.67 | 435.8 | 85.33 | – | –
Cc1ccc(-c2cc(-c3c(-c4ccccc4)nc4c(C)cccn34)nc(N)n2)cc1 | 8.72 | 8.52 | 454.7 | 90.83 | Non-toxic | Non-toxic
Cc1ccc(-c2nc3c(C)cccn3c2C2CC(c3cccs3)=NN2)cc1 (centres undefined) | 9.33 | 7.27 | 530.8 | 117.7 | Non-toxic | Non-toxic
COc1nc(-c2ccccc2)cc(-c2c(-c3ccc(F)cc3)nc3c(C)cccn23)c1C#N | 9.9 | 7.77 | 596 | 171.5 | Non-toxic | Non-toxic
Cc1cccn2c(C3C=C(c4ccc(Cl)cc4)NC(=S)N3)c(-c3ccc(F)cc3)nc12 (centres undefined) | 9.9 | 7.77 | 435 | 82.5 | – | –
Cc1cccn2c(-c3cc(-c4ccc(Cl)cc4)[nH]c(=O)c3C#N)c(-c3ccc(F)cc3)nc12 | 10.97 | 6.54 | 544.7 | 129.2 | Non-toxic | Non-toxic
Cc1ccc(C2=CC(c3c(-c4ccccc4)nc4c(C)cccn34)NC(=S)N2)cc1 (centres undefined) | 9.75 | 7.45 | 426.5 | 79.34 | Non-toxic | Non-toxic
Cc1cccn2c(C3C=C(c4ccccc4)NC(=S)N3)c(-c3ccc(F)cc3)nc12 (centres undefined) | 8.04 | 8.13 | 479.7 | 107 | Non-toxic | Non-toxic
Cc1cccn2c(-c3cc(-c4ccccc4)nc(N)n3)c(-c3ccc(F)cc3)nc12 | 8.11 | 8.27 | 469.2 | 115.7 | Non-toxic | Non-toxic
Cc1cccn2c(C3CC(c4ccc(F)cc4)=NN3)c(-c3ccccc3)nc12 (centres undefined) | 9.25 | 7.15 | 426.8 | 79.32 | – | –
COc1nc(-c2ccc(C)cc2)cc(-c2c(-c3ccccc3)nc3c(C)cccn23)c1C#N | 10.9 | 6.85 | 595.7 | 170.7 | Non-toxic | Non-toxic
COc1nc(-c2ccc([N+](=O)[O-])cc2)cc(-c2c(-c3ccc(F)cc3)nc3c(C)cccn23)c1C#N | 9.13 | 7.01 | 469.2 | 115.7 | – | –
